Ends that are not written are not given here.
Key:
[1] = test system: CII(256-270)/Aq-specific T cell hybridoma cells; assay: Antigen presentation, IL-2 production of T cell hybridoma measured by ELISA; format: cell-based, mice
Description: Antigen-presentation of polypeptides and triple helical polypeptide complexes was studied using A^q-restricted HDQ.9, A^q-restricted HRC.2, A^q-restricted HCQ.4, and DR4-restricted 1259 T cell hybridomas. Briefly, A^q-restricted spleen cells were derived from DBA/1 mice, and DR4-restricted spleen cells were derived from DR4^+/_H-2^−/_mice. T cell hybridoma cells (5×10^4 cells/well) were incubated with polypeptides and polypeptide complexes (20 μg/mL, dilution 1:5) and 5×10^5 spleen cells per well (normal or fixed in 1% paraformaldehyde for 15 min at room temperature) in a volume of 200 μL in 96-well plates for 24 hours. The reactivity of the hybridoma cells toward the polypeptides and triple helical polypeptide complexes, reflected by IL-2 production, was measured by ELISA using europium-labeled streptavidin (WALLAC, Turku).

[2] = test system: C3H.Q mice, arthritis induced with rat CII; assay: Vaccination of adult mice, arthritis induced with rat CII; format: in vivo
Description: Male and female C3H.Q mice were used in two separate experiments. In each experiment, adult mice 8–12 weeks old were injected intradermally at the base of the tail with CII(256-270) (unlinked polypeptides), [(Gly-Pro-Hyp)5-CII(259-274)-(Gly-Pro-Hyp)2]3LAhx (linked polypeptides), or PBS. Specifically, each mouse received 100 μL of PBS or 100 μL of polypeptide (100 μg) emulsified in incomplete Freund's adjuvant.
After three weeks, the mice were treated with rat CII emulsified in complete Freund's adjuvant. Specifically, each mouse received 100 μL containing 100 μg of rat CII injected intradermally around the base of the tail. […] In addition, five weeks after treating the mice with rat CII, blood samples were collected to determine the antibody response.

[3] = test system: HCQ.4 T cell hybridoma cells; assay: T cell hybridoma stimulation with Langerhans cells, IL-2 by CTLL assay; format: cell-based, mice; conditions: 10 μg/mL, Langerhans cells as antigen presenting cells, 24 hours (FIG. 3)
Description: Langerhans cells (dendritic cells) were prepared from ear skin of B10Q×DBA/1 mice and purified with selection on N418 marker. Once purified, Langerhans cells were mixed with HCQ.4 T cell hybridoma cells (1×10^5 cell/well), and the mixture incubated with media containing 10 μg/mL of [(Gly-Pro-Hyp)5-CII(259-274)-(Gly-Pro-Hyp)2]3LAhx (a linked polypeptide), CII(259-270) (an unlinked polypeptide), or native rat CII for 24 hours. After the 24-hour incubation, 0.5 μCi ^3H-thymidine/well (Radiochemical Centre, Amersham,UK) was added, and the cells incubated for an additional 18 hours. After this incubation, the supernatants were assayed for IL-2 content using a CTLL assay. Results were presented as means of duplicates.

C1 mAb and M2.139 mAb = assay: Immunoreactivity of conformation dependent monoclonal antibodies on coated microtiter wells; format: binding, mouse; conditions: compared with native CII (FIG. 8)
Description: Microtiter plates (Nunc, Wiesbaden, Germany) were coated overnight with [(Gly-Pro-Hyp)5-CII(358-366Hyp-369)-(Gly-Pro-Hyp)2]3LAhx or [(Gly-Pro-Hyp)5-CII(551-552Hyp-564)-(Gly-Pro-Hyp)2]3LAhx at 4° C. and blocked with 2% BSA in phosphate buffered saline (PBS, pH 7.4) for one hour. The presentation of a native collagen conformation on the plastic surface of the microtiter well was controlled by the immunoreactivity of two mouse monoclonal antibodies (C1 mAb having specificity for the CII(358-369) region and M2.139 mAb having specificity for the CII(551-564) region) that recognize the CII epitopes in a conformation dependent manner as confirmed in FIG. 8. Identical titration curves for the native CII and the synthetic polypeptides indicate that the synthetic polypeptides have a perfect image of the conformational epitope. […] Heat denaturation was achieved by heating the CII polypeptide to greater than 50° C. for two hours prior to the coating of the microtiter wells.

[4] = test system: monoclonal anti-CII antibody 126.30; assay: ELISA, coated polypeptide complexes capture anti-CII monoclonal antibody; format: binding; conditions: monoclonal antibody 126.30, Rat; coated wells
Excerpt: (§1) Triple helical polypeptide complexes [(Gly-Pro-Hyp)5-CII(358-366Hyp-369)-(Gly-Pro-Hyp)2]3LAhx, [(Gly-Pro-Hyp)5-CII(259-273Hyp-274)-(Gly-Pro-Hyp)2]3LAhx, [(Gly-Pro-Hyp)5-CII(259-273Hyp-274)-CII(359-366Hyp)-(Gly-Pro-Hyp)2]3LAhx, [(Gly-Pro-Hyp)5-CII(494-504Hyp)-(Gly-Pro-Hyp)2]3LAhx, and [(Gly-Pro-Hyp)5-CII(551-552Hyp-564)-(Gly-Pro-Hyp)2]3LAhx were used in an ELISA to detect anti-CII-antibodies. Specifically, Immulon2 HB (Dynex/Technologies Inc., USA) plates were coated with [(Gly-Pro-Hyp)5-CII(358-366Hyp-369)-(Gly-Pro-Hyp)2]3LAhx, [(Gly-Pro-Hyp)5-CII(259-273Hyp-274)-(Gly-Pro-Hyp)2]3LAhx, [(Gly-Pro-Hyp)5-CII(259-273Hyp-274)-CII(359-366Hyp)-(Gly-Pro-Hyp)2]3LAhx, [(Gly-Pro-Hyp)5-CII(494-504Hyp)-(Gly-Pro-Hyp)2]3LAhx, and [(Gly-Pro-Hyp)5-CII(551-552Hyp-564)-(Gly-Pro-Hyp)2]3LAhx in a volume of 50 μL/well and at a concentration of 5 μg/mL. Wells coated with native rat CII (rCII; 10 μg/mL) were used as a positive control, while negative controls included wells coated with native rat type I collagen (rCI; 10 μg/mL) and wells coated with phosphate-buffered saline (PBS; pH 7.4).
(§2) After coating, the plates were incubated for at least one hour in a humid chamber at 4° C. After incubation, the plates were washed three times with PBS using an automatic microtiter plate-washing device (Skan Washer 300, Skatron instruments) and incubated with 50 μL/well of bovine serum albumin (BSA; Sigma, St. Louis, Mo.; 10 mg/mL in PBS) for two hours at 20° C. The wells were washed five times with PBS using ELISA washing equipment (Skatron, Norway) and incubated with a monoclonal anti-CII antibody (50 μL/well in titrated concentrations) for two hours at 20° C. After this two hour incubation, the plates were washed with PBS-Tween and incubated with a secondary enzyme-labeled antibody for two hours at 20° C. For detection of mouse antibodies, peroxidase labeled goat anti-mouse IgG (H+L) (Jackson ImmunoResearch Laboratories, Inc., USA) were used. For detection of rat antibodies, peroxidase labeled goat anti-rat IgG (H+L) (Jackson ImmunoResearch Laboratories, Inc. USA) were used.
(§3) After washing the wells with PBS, the assay was developed using the ABTS system (Boehringer-Mannheim, Mannheim, Germany), and the absorbance levels determined at 405 nm (ELISA reader, Titertek). Titers and concentrations of the monoclonal antibodies were calculated using limiting dilution (ELISA software: HyperELISA 3.0).

[5] = test system: monoclonal anti-CII antibody 126.35; assay: as above; format: binding; conditions: monoclonal antibody 126.35, Rat; coated wells
Excerpt: as §1, §2, §3

[6] = test system: monoclonal anti-CII antibody EB63; assay: as above; format: binding; conditions: monoclonal antibody EB63, Mouse; coated wells
Excerpt: as §1, §2, §3

[7] = test system: monoclonal anti-CII antibody EB2; assay: as above; format: binding; conditions: monoclonal antibody EB2, Mouse; coated wells
Excerpt: as §1, §2, §3

[8] = test system: monoclonal anti-CII antibody M2 87; assay: as above; format: binding; conditions: monoclonal antibody M2 87, Mouse; coated wells
Excerpt: as §1, §2, §3

[9] = test system: monoclonal anti-CII antibody 122.9; assay: as above; format: binding; conditions: monoclonal antibody 122.9, Rat; coated wells
Excerpt: as §1, §2, §3

[10] = test system: monoclonal anti-CII antibody 145.322; assay: as above; format: binding; conditions: monoclonal antibody 145.322, Rat; coated wells
Excerpt: as §1, §2, §3

[11] = test system: monoclonal anti-CII antibody 125.5; assay: as above; format: binding; conditions: monoclonal antibody 125.5, Rat; coated wells
Excerpt: as §1, §2, §3

[12] = test system: monoclonal anti-CII antibody M2 84; assay: as above; format: binding; conditions: monoclonal antibody M2 84, Mouse; coated wells
Excerpt: as §1, §2, §3

[13] = test system: monoclonal anti-CII antibody M2 88; assay: as above; format: binding; conditions: monoclonal antibody M2 88, Mouse; coated wells
Excerpt: as §1, §2, §3

[14] = test system: monoclonal anti-CII antibody M2 76; assay: as above; format: binding; conditions: monoclonal antibody M2 76, Mouse; coated wells
Excerpt: as §1, §2, §3

[15] = test system: monoclonal anti-CII antibody M2 139; assay: as above; format: binding; conditions: monoclonal antibody M2 139, Mouse; coated wells
Excerpt: as §1, §2, §3

[16] = test system: monoclonal anti-CII antibody 146.50; assay: as above; format: binding; conditions: monoclonal antibody 146.50, Rat; coated wells
Excerpt: as §1, §2, §3

CD4+ T cells = assay: IL-2 response of CD4+ T cells upon in vitro stimulation, two-color flow cytometry; format: cell-based, human; conditions: 10 μg per mL plus anti-CD28
HCQ.4 hybridoma = assay: Detection of transgenic CII from skin grafts by T cell hybridoma, CTLL assay; format: cell-based, mice; conditions: HCQ.4, specific for non-glycosylated CII(256-270)
Description: (§4) T cell hybridomas HCQ.4 and HCQ.10, specific for CII(256-270) without posttranslational modification and with glucose on hydroxylysin at position K264 respectively, were used to detect transgenic […] prepared from TSC or recipients grafts at the end of arthritis experiments as described earlier (Michaelsson et al., J. Exp. Med., 180:745–749 (1994) and Corthay et al., Eur. J. Immunol., 28:2580–2590 (1998)). Briefly, syngeneic spleen cells were incubated with titrated amount of antigen at 5×10^5/mL together with the hybridoma cells at 5×10^4/mL. The interleukin-2 production was detected after 24 hours by transferring 100 μL of the supernatant to new plates. Plates were snap-frozen to avoid any contamination of living cells before addition of 10^4 CTLL/well. CTLL were incubated for 24 hours before thymidine-labeling and harvesting 15–18 hours later.

HCQ.10 hybridoma = assay: as above; format: cell-based, mice; conditions: HCQ.10, specific for glycosylated CII(256-270)
Description: as §4

GEPGIAGFKGEQGPK [CII(256-270), non-glycosylated, unlinked polypeptide]
stimulation of T cell hybridoma cells (IL-2 production) ([1]; non-fixed APC): potent stimulators
stimulation of T cell hybridoma cells (IL-2 production) ([1]; presented by formalin-fixed spleen cells (FIGS. 25–26)): stimulated

[(Gly-Pro-Hyp)5-CII(259-274)-(Gly-Pro-Hyp)2]3LAhx [linked polypeptide composition]
development of arthritis ([2]; adult C3H.Q mice, 100 μg intradermally in incomplete Freund's adjuvant (FIG. 6)): abrogated development of arthritis
antibody response ([2]; five weeks after treating the mice with rat CII): lower
stimulation of T cells (IL-2 content, CTLL assay, CPM) [3]: stimulated T cells

heat denatured CII: CII polypeptide heated to greater than 50° C. for two hours prior to coating
binding of C1 mAb / M2.139 mAb, titration curves (C1 mAb and M2.139 mAb): does not bind

rCII: native rat type II collagen, positive control
end point titer value in ng antibody/mL [4]: 10 ng antibody/mL
end point titer value in ng antibody/mL [5]: 10 ng antibody/mL
end point titer value in ng antibody/mL [6]: 100 ng antibody/mL
end point titer value in ng antibody/mL [7]: <10 ng antibody/mL
end point titer value in ng antibody/mL [8]: 10 ng antibody/mL
end point titer value in ng antibody/mL [9]: 10 ng antibody/mL
end point titer value in ng antibody/mL [10]: 100 ng antibody/mL
end point titer value in ng antibody/mL [11]: 10 ng antibody/mL
end point titer value in ng antibody/mL [12]: 10 ng antibody/mL
end point titer value in ng antibody/mL [13]: 10 ng antibody/mL
end point titer value in ng antibody/mL [14]: 10 ng antibody/mL
end point titer value in ng antibody/mL [15]: 10 ng antibody/mL
end point titer value in ng antibody/mL [16]: 100 ng antibody/mL
stimulation of T cells (IL-2 content, CTLL assay, CPM) [3]: did not

tetanus toxoid [TT]
IL-2 response of CD4+ T cells (percent of IL-2-producing CD4+ T cells) (CD4+ T cells; patient RA 1): 0.38%
IL-2 response of CD4+ T cells (percent of IL-2-producing CD4+ T cells) (CD4+ T cells; patient RA 2): 0.61%
IL-2 response of CD4+ T cells (percent of IL-2-producing CD4+ T cells) (CD4+ T cells; patient RA 3): 0.20%

whole CII protein: whole type II collagen protein
stimulation of hybridoma (IL-2, CTLL assay) (HCQ.4 hybridoma): respond
stimulation of hybridoma (IL-2, CTLL assay) (HCQ.10 hybridoma): respond
